The text below walks through data of ChEMBL document CHEMBL1139075, “Synthesis and antitubercular activity of quaternized promazine and promethazine derivatives” (Bioorg Med Chem Lett, 2007).

The MIC is the lowest concentration that inhibits growth of the organism. High values mean a need for much substance, low ones inhibition by little substance. The IC50 is the concentration needed to halve the response being measured. Lower therefore signals inhibition by little substance.

The test system of assay [1] is Mycobacterium tuberculosis. Nature of the assay: Antitubercular activity against non-replicating Mycobacterium tuberculosis H37Rv by LORA. In kind it is functional.
For another assay, the system named is Vero. Nature of the assay: Cytotoxicity against Vero cells after 3 days. In kind it is cell-based. The following applies: Chlorocebus sabaeus, 72 h.
Assay [2] relates to Mycobacterium tuberculosis. Nature of the assay: Antitubercular activity against actively growing Mycobacterium tuberculosis H37Rv by microplate alamar blue assay. In kind it is functional. A general note: Resazurin is reduced to fluorescent resorufin, in cell work by metabolically active cells.

Bounds are passed on as bounds.

With `C[N+](C)(CCCN1c2ccccc2Sc2ccc(C(F)(F)F)cc21)Cc1ccc(F)cc1`, the MIC in assay [1] is 10 µM; in assay [2], 6.4 µM. Besides, in the assay on Vero, the IC50 was > 128 µM.
Taken in the same sequence, the figures for `C[N+](C)(CCCN1c2ccccc2Sc2ccc(Cl)cc21)Cc1ccccc1` were 11.1 µM, 7.33 µM and > 128 µM.
Turning to `C[N+](C)(CCCN1c2ccccc2Sc2ccc(C(F)(F)F)cc21)Cc1ccc(Cl)cc1`, the values for the MIC in assay [1] and in assay [2] were 6.1 µM and 3.81 µM, respectively. Besides, in the assay on Vero, the IC50 is > 128 µM.
Taken in the same sequence, the figures for `C[N+](C)(CCCN1c2ccccc2Sc2ccc(C(F)(F)F)cc21)Cc1cccc(Cl)c1` were 5.8 µM, 3.8 µM and > 128 µM.
In the case of `C[N+](C)(CCCN1c2ccccc2Sc2ccccc21)Cc1ccccc1Cl`, the MIC came to 24.6 µM in assay [1] and 14.3 µM in assay [2].
As for `C[N+](C)(CCCN1c2ccccc2Sc2ccc(C(F)(F)F)cc21)Cc1ccccc1Cl`, the MIC in assay [1] turned out to be 7.5 µM; in assay [2] it was 7.3 µM. Further, in the assay on Vero, the IC50 is > 128 µM.
`CC(CN1c2ccccc2Sc2ccccc21)[N+](C)(C)Cc1ccc([N+](=O)[O-])cc1` (stereo unspecified): the figures for the MIC in assay [1] and in assay [2] were > 128 µM and 20.7 µM, respectively.
For `Cc1ccc(C[N+](C)(C)CCCN2c3ccccc3Sc3ccc(Cl)cc32)cc1`, the MIC in assay [1] turned out to be 7.5 µM; in assay [2], 4.7 µM. Besides, the IC50 in the assay on Vero was > 128 µM.
Regarding `C[N+](C)(CCCN1c2ccccc2Sc2ccc(Cl)cc21)Cc1ccc(F)cc1`, the MIC came to 13.7 µM in assay [1] and 7.6 µM in assay [2]. In addition, in the assay with Vero, the concentration for half-maximal inhibition (IC50) was > 128 µM.
With `Cc1ccc(C[N+](C)(C)CCCN2c3ccccc3Sc3ccccc32)cc1`, the MIC in assay [1] was determined as 15 µM; in assay [2], 9.9 µM. For the same compound, in the assay with Vero, the IC50 is > 128 µM.
Taken in the same sequence, the figures for `COc1ccc(C[N+](C)(C)CCCN2c3ccccc3Sc3ccc(Cl)cc32)cc1` were 11.9 µM, 8.5 µM and > 128 µM.
For the compound `C[N+](C)(CCCN1c2ccccc2Sc2ccc(Cl)cc21)Cc1cccc(Cl)c1`, the MIC in assay [1] came out at 6.7 µM; in assay [2], 4.5 µM. Moreover, in the assay on Vero, the IC50 was > 128 µM.
For `C[N+](C)(CCCN1c2ccccc2Sc2ccc(Cl)cc21)Cc1ccccc1Cl`, the MIC in assay [1] turned out to be 7.6 µM; in assay [2], 5.6 µM. For the same compound, the IC50 in the assay with Vero was > 128 µM.
On to `C[N+](C)(CCCN1c2ccccc2Sc2ccc(Cl)cc21)Cc1ccc(Cl)cc1`, for which the MIC in assay [1] turned out to be 6.7 µM; in assay [2], 6.06 µM. For the same compound, in the assay on Vero, the IC50 is > 128 µM.
As for `COc1ccc(C[N+](C)(C)C(C)CN2c3ccccc3Sc3ccccc32)cc1` (stereo unspecified), the MIC in assay [1] amounted to 105 µM; in assay [2], 14.4 µM.
With `Cc1ccc(C[N+](C)(C)CCCN2c3ccccc3Sc3ccc(C(F)(F)F)cc32)cc1`, the MIC came to 6.9 µM in assay [1] and 6.8 µM in assay [2]. The IC50 with Vero is > 128 µM.
Take `C[N+](C)(CCCN1c2ccccc2Sc2ccc(Cl)cc21)Cc1ccc([N+](=O)[O-])cc1`: the values for the MIC in assay [1] and in assay [2] were 27.5 µM and 12.3 µM, respectively.
Consider `Cc1ccc(C[N+](C)(C)C(C)CN2c3ccccc3Sc3ccccc32)cc1` (stereo unspecified), for which the MIC was determined as 34.7 µM in assay [1] and 12.1 µM in assay [2].
Consider `C[N+](C)(CCCN1c2ccccc2Sc2ccccc21)Cc1ccc(Cl)cc1`, for which the figures for the MIC in assay [1] and in assay [2] were 15.4 µM and 9.31 µM, respectively. For the same compound, the IC50 in the assay on Vero is > 64 µM.
Regarding `C=CC[N+](C)(C)CCCN1c2ccccc2Sc2ccc(Cl)cc21`, the MIC in assay [1] was 106 µM; in assay [2] it was 30.6 µM.
For `C[N+](C)(CCCN1c2ccccc2Sc2ccccc21)Cc1ccc(F)cc1`, the MIC in assay [1] came to 32.9 µM; in assay [2], 14.6 µM.
On to `C[N+](C)(CCCN1c2ccccc2Sc2ccccc21)Cc1cccc(Cl)c1`, for which the MIC in assay [1] was 13 µM; in assay [2] it was 7.5 µM. Besides, in the assay on Vero, the IC50 was > 128 µM.
As for `CC(CN1c2ccccc2Sc2ccccc21)[N+](C)(C)Cc1ccccc1` (stereo unspecified), the MIC in assay [1] came out at 99.7 µM; in assay [2] it was 31.6 µM.
